Source: patent US11370798B2 (Vertex Pharmaceuticals Incorporated, priority 2012, dated 2022)

system: HCT116 colorectal cancer cells; assay: Cisplatin sensitization assay (96 h cell viability MTS); type: cell-based; conditions: compound and Cisplatin added simultaneously, Cisplatin sensitization value;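 further: Test-compound concentration that lowers the Cisplatin IC50 by a set fold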
In short: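 Compound and cisplatin added together as a full matrix of 2-fold serial dilutions from a top final concentration of 10 μM; cells incubated 96 h at 37° C, 5% CO2. Viability then read by MTS after 1 h further incubation; sensitization value reported in μM bins.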

**Q.** How did the “Cisplatin Sensitization Assay” value turn out when `CN1CCCN(C(=O)C2CCN(c3c(F)cncc3NC(=O)c3c(N)nn4cc(F)cnc34)CC2)CC1` [I-G-6, 2-amino-6-fluoro-N-(5-fluoro-4-(4-(4-methyl-1,4-diazepane-1-carbonyl)piperidin-1-yl)pyridin-3-yl)pyrazolo[1,5-a]pyrimidine-3-carboxamide] was run?
**A.** Its value is “+++ (Cisplatin sensitization value of <0.02 μM)”.

**Q.** Which “Cisplatin Sensitization Assay” value does the source give for `Nc1nn2cc(F)cnc2c1C(=O)Nc1cncc(F)c1N1CCC(C(=O)N2CC3CNCC3C2)CC1` (centres unmarked) [I-G-51, 2-amino-6-fluoro-N-(5-fluoro-4-(4-(octahydropyrrolo[3,4-c]pyrrole-2-carbonyl)piperidin-1-yl)pyridin-3-yl)pyrazolo[1,5-a]pyrimidine-3-carboxamide] here?
**A.** The value was “+++ (Cisplatin sensitization value of <0.02 μM)”.

**Q.** `CC1CN(C)CCN1c1ccncc1NC(=O)c1c(N)nn2cc(Cl)cnc12` (centres unmarked) [I-N-72, 2-amino-6-chloro-N-(4-(2,4-dimethylpiperazin-1-yl)pyridin-3-yl)pyrazolo[1,5-a]pyrimidine-3-carboxamide] was tested. Which “Cisplatin Sensitization Assay” value did it give?
**A.** Its value is “+++ (Cisplatin sensitization value of <0.02 μM)”.

**Q.** With `CN1CCOC2(CCN(c3c(F)cncc3NC(=O)c3c(N)nn4cc(F)cnc34)CC2)C1` [I-N-272, 2-amino-6-fluoro-N-(5-fluoro-4-(4-methyl-1-oxa-4,9-diazaspiro[5.5]undecan-9-yl)pyridin-3-yl)pyrazolo[1,5-a]pyrimidine-3-carboxamide] as the compound, how does the “Cisplatin Sensitization Assay” value read?
**A.** The value was “+++ (Cisplatin sensitization value of <0.02 μM)”.

**Q.** How did the “Cisplatin Sensitization Assay” value turn out when `CN1CCc2c(cncc2NC(=O)c2c(N)nn3cc(F)cnc23)C1` [I-C-8, 2-amino-6-fluoro-N-(7-methyl-5,6,7,8-tetrahydro-2,7-naphthyridin-4-yl)pyrazolo[1,5-a]pyrimidine-3-carboxamide] was run?
**A.** Its value is “+ (Cisplatin sensitization value>0.2 μM but <5 μM)”.

**Q.** With `C[C@H]1CN(C(=O)C2CCN(c3c(F)cncc3NC(=O)c3c(N)nn4cc(F)cnc34)CC2)CCN1` [I-G-61, (S)-2-amino-6-fluoro-N-(5-fluoro-4-(4-(3-methylpiperazine-1-carbonyl)piperidin-1-yl)pyridin-3-yl)pyrazolo[1,5-a]pyrimidine-3-carboxamide] as the compound, how does the “Cisplatin Sensitization Assay” value read?
**A.** Its value is “+++ (Cisplatin sensitization value of <0.02 μM)”.

**Q.** With `Cn1cncc1-c1ccncc1NC(=O)c1c(N)nn2cc(F)cnc12` [I-C-56, 2-amino-6-fluoro-N-(4-(1-methyl-1H-imidazol-5-yl)pyridin-3-yl)pyrazolo[1,5-a]pyrimidine-3-carboxamide] as the compound, how does the “Cisplatin Sensitization Assay” value read?
**A.** The value was “+++ (Cisplatin sensitization value of <0.02 μM)”.

**Q.** For `CN(C)CCOc1cc(Cl)ncc1NC(=O)c1c(N)nn2cc(Cl)cnc12` [I-O-68, 2-amino-6-chloro-N-(6-chloro-4-(2-(dimethylamino)ethoxy)pyridin-3-yl)pyrazolo[1,5-a]pyrimidine-3-carboxamide], which “Cisplatin Sensitization Assay” value is on record?
**A.** The value was “++ (Cisplatin sensitization value>0.02 μM but <0.2 μM)”.

**Q.** With `Nc1nn2cc(F)cnc2c1C(=O)Nc1cnccc1N1CCC(c2nnco2)CC1` [I-N-268, N-(4-(4-(1,3,4-oxadiazol-2-yl)piperidin-1-yl)pyridin-3-yl)-2-amino-6-fluoropyrazolo[1,5-a]pyrimidine-3-carboxamide] as the compound, how does the “Cisplatin Sensitization Assay” value read?
**A.** The value was “+++ (Cisplatin sensitization value of <0.02 μM)”.

**Q.** `N#CCc1cnc2c(C(=O)Nc3cnccc3-c3ccccc3)c(N)nn2c1` [I-C-6, 2-amino-6-(cyanomethyl)-N-(4-phenylpyridin-3-yl)pyrazolo[1,5-a]pyrimidine-3-carboxamide] was tested. Which “Cisplatin Sensitization Assay” value did it give?
**A.** The value was “+++ (Cisplatin sensitization value of <0.02 μM)”.

**Q.** How did the “Cisplatin Sensitization Assay” value turn out when `Nc1nn2cc(F)cnc2c1C(=O)Nc1cncc(F)c1N1CCN2C(=O)CCC2C1` (centres unmarked) [I-N-163, 2-amino-6-fluoro-N-(5-fluoro-4-(6-oxohexahydropyrrolo[1,2-a]pyrazin-2(1H)-yl)pyridin-3-yl)pyrazolo[1,5-a]pyrimidine-3-carboxamide] was run?
**A.** Its value is “+++ (Cisplatin sensitization value of <0.02 μM)”.

**Q.** Which “Cisplatin Sensitization Assay” value does the source give for `CN1CC2(CCN(c3ccncc3NC(=O)c3c(N)nn4cc(F)cnc34)CC2)CC1=O` [I-N-236, 2-amino-6-fluoro-N-(4-(2-methyl-3-oxo-2,8-diazaspiro[4.5]decan-8-yl)pyridin-3-yl)pyrazolo[1,5-a]pyrimidine-3-carboxamide] here?
**A.** The value was “+++ (Cisplatin sensitization value of <0.02 μM)”.

**Q.** For `Nc1nn2cc(Cl)cnc2c1C(=O)Nc1cnccc1O[C@H]1CCCNC1` [I-O-74, (S)-2-amino-6-chloro-N-(4-(piperidin-3-yloxy)pyridin-3-yl)pyrazolo[1,5-a]pyrimidine-3-carboxamide], which “Cisplatin Sensitization Assay” value is on record?
**A.** Its value is “++ (Cisplatin sensitization value>0.02 μM but <0.2 μM)”.

**Q.** With `Nc1nn2cc(F)cnc2c1C(=O)Nc1cncc(F)c1N1CCN(C(=O)C2CNC2)CC1` [I-N-168, 2-amino-N-(4-(4-(azetidine-3-carbonyl)piperazin-1-yl)-5-fluoropyridin-3-yl)-6-fluoropyrazolo[1,5-a]pyrimidine-3-carboxamide] as the compound, how does the “Cisplatin Sensitization Assay” value read?
**A.** Its value is “+ (Cisplatin sensitization value>0.2 μM but <5 μM)”.

**Q.** With `CN(C)C1CCN(C2CCN(c3ccncc3NC(=O)c3c(N)nn4cc(Cl)cnc34)CC2)C1` (centres unmarked) [I-N-106, 2-amino-6-chloro-N-(4-(4-(3-(dimethylamino)pyrrolidin-1-yl)piperidin-1-yl)pyridin-3-yl)pyrazolo[1,5-a]pyrimidine-3-carboxamide] as the compound, how does the “Cisplatin Sensitization Assay” value read?
**A.** The value was “+++ (Cisplatin sensitization value of <0.02 μM)”.

**Q.** How did the “Cisplatin Sensitization Assay” value turn out when `Nc1nn2cc(Cl)cnc2c1C(=O)Nc1cnccc1OC1CCNCC1` [I-O-80, 2-amino-6-chloro-N-(4-(piperidin-4-yloxy)pyridin-3-yl)pyrazolo[1,5-a]pyrimidine-3-carboxamide] was run?
**A.** Its value is “+++ (Cisplatin sensitization value of <0.02 μM)”.

**Q.** `COC1CN(C(=O)C2CCN(c3c(F)cncc3NC(=O)c3c(N)nn4cc(F)cnc34)CC2)C1` [I-G-21, 2-amino-6-fluoro-N-(5-fluoro-4-(4-(3-methoxyazetidine-1-carbonyl)piperidin-1-yl)pyridin-3-yl)pyrazolo[1,5-a]pyrimidine-3-carboxamide] was tested. Which “Cisplatin Sensitization Assay” value did it give?
**A.** Its value is “+++ (Cisplatin sensitization value of <0.02 μM)”.

**Q.** Which “Cisplatin Sensitization Assay” value does the source give for `N#CCc1cnc2c(C(=O)Nc3cnccc3N3CCOCC3)c(N)nn2c1` [I-N-81, 2-amino-6-(cyanomethyl)-N-(4-morpholinopyridin-3-yl)pyrazolo[1,5-a]pyrimidine-3-carboxamide] here?
**A.** Its value is “+++ (Cisplatin sensitization value of <0.02 μM)”.

**Q.** `Nc1nn2cc(F)cnc2c1C(=O)Nc1cncc(F)c1N1CCN(C(=O)CN2CCCC2)CC1` [I-N-187, 2-amino-6-fluoro-N-(5-fluoro-4-(4-(2-(pyrrolidin-1-yl)acetyl)piperazin-1-yl)pyridin-3-yl)pyrazolo[1,5-a]pyrimidine-3-carboxamide] was tested. Which “Cisplatin Sensitization Assay” value did it give?
**A.** Its value is “+++ (Cisplatin sensitization value of <0.02 μM)”.

**Q.** How did the “Cisplatin Sensitization Assay” value turn out when `Nc1nn2cc(Cl)cnc2c1C(=O)Nc1cnccc1N1CCC(N2CC(F)(F)C2)CC1` [I-N-108, 2-amino-6-chloro-N-(4-(4-(3,3-difluoroazetidin-1-yl)piperidin-1-yl)pyridin-3-yl)pyrazolo[1,5-a]pyrimidine-3-carboxamide] was run?
**A.** The value was “+++ (Cisplatin sensitization value of <0.02 μM)”.

**Q.** How did the “Cisplatin Sensitization Assay” value turn out when `CN(C)CCN1CCN(c2ccncc2NC(=O)c2c(N)nn3cc(Cl)cnc23)CC1` [I-N-49, 2-amino-6-chloro-N-(4-(4-(2-(dimethylamino)ethyl)piperazin-1-yl)pyridin-3-yl)pyrazolo[1,5-a]pyrimidine-3-carboxamide] was run?
**A.** Its value is “+++ (Cisplatin sensitization value of <0.02 μM)”.

**Q.** For `Nc1nn2cc(F)cnc2c1C(=O)Nc1cnccc1N1CCN(C2COC2)CC1` [I-N-1, 2-amino-6-fluoro-N-(4-(4-(oxetan-3-yl)piperazin-1-yl)pyridin-3-yl)pyrazolo[1,5-a]pyrimidine-3-carboxamide], which “Cisplatin Sensitization Assay” value is on record?
**A.** Its value is “++ (Cisplatin sensitization value>0.02 μM but <0.2 μM)”.

**Q.** With `Nc1nn2cc(Cl)cnc2c1C(=O)Nc1cnccc1O[C@H]1C[C@@]2(CCN2)C1` [I-O-79, N-(4-((4r,6s)-1-azaspiro[3.3]heptan-6-yloxy)pyridin-3-yl)-2-amino-6-chloropyrazolo[1,5-a]pyrimidine-3-carboxamide] as the compound, how does the “Cisplatin Sensitization Assay” value read?
**A.** Its value is “++ (Cisplatin sensitization value>0.02 μM but <0.2 μM)”.

**Q.** `CS(=O)(=O)C1CCN(c2ccncc2NC(=O)c2c(N)nn3cc(F)cnc23)CC1` [I-N-190, 2-amino-6-fluoro-N-(4-(4-(methylsulfonyl)piperidin-1-yl)pyridin-3-yl)pyrazolo[1,5-a]pyrimidine-3-carboxamide] was tested. Which “Cisplatin Sensitization Assay” value did it give?
**A.** Its value is “+++ (Cisplatin sensitization value of <0.02 μM)”.

**Q.** How did the “Cisplatin Sensitization Assay” value turn out when `CCOc1ccncc1NC(=O)c1c(N)nn2cc(CC#N)cnc12` [I-O-28, 2-amino-6-(cyanomethyl)-N-(4-ethoxypyridin-3-yl)pyrazolo[1,5-a]pyrimidine-3-carboxamide] was run?
**A.** Its value is “+++ (Cisplatin sensitization value of <0.02 μM)”.

**Q.** With `Nc1nn2cc(F)cnc2c1C(=O)Nc1cncc(F)c1N1CCC(C(=O)N2CCC(N3CCCCC3)CC2)CC1` [I-G-60, N-(4-(4-([1,4′-bipiperidine]-1′-carbonyl)piperidin-1-yl)-5-fluoropyridin-3-yl)-2-amino-6-fluoropyrazolo[1,5-a]pyrimidine-3-carboxamide] as the compound, how does the “Cisplatin Sensitization Assay” value read?
**A.** Its value is “+++ (Cisplatin sensitization value of <0.02 μM)”.

**Q.** Which “Cisplatin Sensitization Assay” value does the source give for `Nc1nn2cc(Cl)cnc2c1C(=O)Nc1cnccc1OCCCO` [I-O-53, 2-amino-6-chloro-N-(4-(3-hydroxypropoxy)pyridin-3-yl)pyrazolo[1,5-a]pyrimidine-3-carboxamide] here?
**A.** The value was “+++ (Cisplatin sensitization value of <0.02 μM)”.

**Q.** For `N#CCc1cnc2c(C(=O)Nc3cnccc3OC3CNC3)c(N)nn2c1` [I-O-82, 2-amino-N-(4-(azetidin-3-yloxy)pyridin-3-yl)-6-(cyanomethyl)pyrazolo[1,5-a]pyrimidine-3-carboxamide], which “Cisplatin Sensitization Assay” value is on record?
**A.** Its value is “++ (Cisplatin sensitization value>0.02 μM but <0.2 μM)”.

**Q.** Which “Cisplatin Sensitization Assay” value does the source give for `CN1CCCCC1C(=O)N1CCN(c2c(F)cncc2NC(=O)c2c(N)nn3cc(F)cnc23)CC1` (centres unmarked) [I-N-173, 2-amino-6-fluoro-N-(5-fluoro-4-(4-(1-methylpiperidine-2-carbonyl)piperazin-1-yl)pyridin-3-yl)pyrazolo[1,5-a]pyrimidine-3-carboxamide] here?
**A.** The value was “+++ (Cisplatin sensitization value of <0.02 μM)”.
